Experimental data published in patent publication US12398141B2 (SHANGHAI SYNERGY PHARMACEUTICAL SCIENCES CO., LTD, priority 2019, dated 2025).

Assays:
JAK3 = JAK3 (Homo sapiens (Human), UniProt P52333); assay: JAK3 LANCE Ultra kinase assay; assay type: biochemical; conditions: 4 uM ATP
JAK1 = JAK1 (Homo sapiens (Human), UniProt P23458); assay: JAK1 LANCE Ultra kinase assay; assay type: biochemical; conditions: for IC50: 38 uM ATP; for JAK2/JAK1: ratio of IC50 JAK2 to IC50 JAK1
Method in brief: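 JAK1 preincubated with compound 10 min at room temperature, then ULight-JAK-1 peptide/ATP added for 90 min at room temperature; stopped with EDTA, Eu-W1024 anti-phosphotyrosine TR-FRET read after 60 min. Inhibition normalised to DMSO and blank wells; IC50 from curve fit.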

JAK2 = JAK2 (Homo sapiens (Human), UniProt O60674); assay: JAK2 LANCE Ultra kinase assay; assay type: biochemical; conditions: 12 uM ATP
Sequence of JAK2 (O60674 whole entry): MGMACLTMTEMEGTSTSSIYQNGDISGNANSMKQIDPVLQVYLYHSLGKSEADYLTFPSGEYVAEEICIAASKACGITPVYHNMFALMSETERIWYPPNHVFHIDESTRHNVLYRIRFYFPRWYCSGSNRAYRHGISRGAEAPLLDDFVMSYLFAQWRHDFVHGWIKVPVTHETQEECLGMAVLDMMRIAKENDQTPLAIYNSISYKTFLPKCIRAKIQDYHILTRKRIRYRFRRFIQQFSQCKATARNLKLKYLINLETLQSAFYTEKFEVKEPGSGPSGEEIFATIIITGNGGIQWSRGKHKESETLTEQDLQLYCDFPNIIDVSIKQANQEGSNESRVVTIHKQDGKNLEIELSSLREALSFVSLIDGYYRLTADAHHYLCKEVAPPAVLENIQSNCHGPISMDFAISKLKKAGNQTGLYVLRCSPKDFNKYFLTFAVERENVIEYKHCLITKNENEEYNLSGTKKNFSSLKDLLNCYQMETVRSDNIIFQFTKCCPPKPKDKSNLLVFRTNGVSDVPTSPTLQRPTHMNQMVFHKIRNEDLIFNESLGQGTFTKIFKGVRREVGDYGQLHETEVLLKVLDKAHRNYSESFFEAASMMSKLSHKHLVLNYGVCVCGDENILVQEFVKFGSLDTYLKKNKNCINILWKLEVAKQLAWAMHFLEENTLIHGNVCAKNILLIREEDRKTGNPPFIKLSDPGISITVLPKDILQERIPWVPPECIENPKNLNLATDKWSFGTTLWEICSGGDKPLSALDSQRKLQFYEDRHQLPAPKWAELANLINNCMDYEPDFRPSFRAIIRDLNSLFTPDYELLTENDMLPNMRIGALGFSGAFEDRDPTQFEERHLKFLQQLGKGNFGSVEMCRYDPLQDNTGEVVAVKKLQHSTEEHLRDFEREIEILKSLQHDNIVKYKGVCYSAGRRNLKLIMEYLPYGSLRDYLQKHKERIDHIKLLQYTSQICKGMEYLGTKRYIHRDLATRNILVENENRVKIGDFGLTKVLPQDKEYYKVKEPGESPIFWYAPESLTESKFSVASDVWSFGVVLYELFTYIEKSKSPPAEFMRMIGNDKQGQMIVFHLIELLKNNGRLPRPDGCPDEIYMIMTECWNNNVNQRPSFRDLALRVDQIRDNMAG

[1] = Collagen-induced rheumatoid arthritis model, clinical score; assay type: in vivo, mice; parameters: key: 0-4 per limb by redness/deformity, max 16 per animal; conditions: clinical score 0-16 per animal, Day 0 (before modeling)
Method: (§1) The effects of compounds H07, H12, H14, H25, H30, H39 and H44 on rheumatoid arthritis in […] were determined after long term administration by using Lewis male […] (Beijing Vital River Laboratory Animal Technology Co., Ltd.), aged 5-6 weeks and weighing […] as test animals. The anti-inflammatory pharmacodynamics characteristic of the compounds of the invention was discussed.
(§2) A certain amount of compounds were taken and dissolved in 4% Tween 80/0.5% hydroxy propyl methyl cellulose solution. A volume of intragastric administration of mice was 10 ml/kg.
(§3) Collagen type II was dissolved in 0.1M acetic acid and kept in a 4° C. refrigerator overnight at a collagen concentration of 4 mg/mL. Same volume of incomplete Freund adjuvant (Sigma, USA) was added in collagen before injection in test, which was emulsified high speed homogenizer (30000 rpm) to prepare a collagen emulsion. This procedure was carried out on ice.
(§4) Mice were immunologically injected with the collagen emulsion by two separate times for modeling on days 1 and 7 (the day before modeling was day 0). 0.1 ml of collagen emulsion prepared as above was injected intradermally into a root of tail at a single point, and 0.2 ml was injected intradermally into back at two points. The animals were subjected to clinical score and paw volume test from day 10 to day 14 after modeling. Animals successfully modeled (average clinical score≥3 points/animal) were assigned to each administration group, with each group included 10 animals. They were administrated intragastrically with above compounds or resolvents at a dosage of 10 mg/kg twice/day, and administrated intragastrically with methotrexate (2 mg/kg, Sigma, USA) every three days, until day 27. During the test, the […] were scored twice a week, and the paw volume and body weight were measured twice.
(§5) According to the different degrees of lesions (redness and joint deformation), the scores were ranged from 0 to 4 points, with the highest score of 4 points for each limb and 16 points for each animal. Scoring standards are as follows: 0, no redness; 1, slight redness on mid legs (tarsals) or ankles; 2, slight redness from ankles to mid legs (tarsals); 3, medium redness from ankles to tarsometatarsal joints; 4, severe redness from toes or fingers to ankles or wrist joints.

Lewis male mice = assay: as above; assay type: in vivo; parameters: key: 0-4 per limb by redness/deformity, max 16 per animal; conditions: clinical score 0-16 per animal, compounds 10 mg/kg twice/day, methotrexate 2 mg/kg every three days
Method: as §1, §2, §3, §4, §5

Sequence of JAK3 (P52333 whole entry): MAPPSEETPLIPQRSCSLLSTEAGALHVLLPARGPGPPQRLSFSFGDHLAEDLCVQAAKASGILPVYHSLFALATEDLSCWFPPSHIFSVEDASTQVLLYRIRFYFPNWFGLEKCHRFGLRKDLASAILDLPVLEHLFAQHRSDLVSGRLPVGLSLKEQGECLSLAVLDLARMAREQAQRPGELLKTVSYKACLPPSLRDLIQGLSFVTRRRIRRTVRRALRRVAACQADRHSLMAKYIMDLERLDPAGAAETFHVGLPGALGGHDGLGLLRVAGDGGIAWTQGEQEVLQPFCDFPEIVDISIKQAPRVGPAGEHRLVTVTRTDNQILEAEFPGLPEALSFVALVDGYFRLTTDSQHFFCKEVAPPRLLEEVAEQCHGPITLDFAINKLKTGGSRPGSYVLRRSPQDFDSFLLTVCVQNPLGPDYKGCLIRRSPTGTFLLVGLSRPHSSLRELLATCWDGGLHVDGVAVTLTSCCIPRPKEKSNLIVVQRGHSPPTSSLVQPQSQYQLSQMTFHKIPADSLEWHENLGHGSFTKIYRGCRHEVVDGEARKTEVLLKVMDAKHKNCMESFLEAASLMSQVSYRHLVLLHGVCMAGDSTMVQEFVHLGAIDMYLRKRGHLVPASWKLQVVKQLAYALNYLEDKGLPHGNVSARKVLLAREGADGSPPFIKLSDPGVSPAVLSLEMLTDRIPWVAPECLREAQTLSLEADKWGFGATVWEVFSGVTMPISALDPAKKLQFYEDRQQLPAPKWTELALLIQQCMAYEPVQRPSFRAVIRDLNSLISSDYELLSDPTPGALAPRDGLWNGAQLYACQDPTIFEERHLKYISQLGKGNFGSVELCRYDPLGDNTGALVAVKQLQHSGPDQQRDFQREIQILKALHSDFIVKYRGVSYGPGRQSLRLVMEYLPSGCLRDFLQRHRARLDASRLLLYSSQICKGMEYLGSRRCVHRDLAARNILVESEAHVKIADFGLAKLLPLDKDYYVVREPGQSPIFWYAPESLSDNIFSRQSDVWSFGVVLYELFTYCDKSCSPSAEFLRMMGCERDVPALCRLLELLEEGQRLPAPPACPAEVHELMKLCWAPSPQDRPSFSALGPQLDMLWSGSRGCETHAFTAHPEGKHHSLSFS
Sequence of JAK1 (P23458 whole entry): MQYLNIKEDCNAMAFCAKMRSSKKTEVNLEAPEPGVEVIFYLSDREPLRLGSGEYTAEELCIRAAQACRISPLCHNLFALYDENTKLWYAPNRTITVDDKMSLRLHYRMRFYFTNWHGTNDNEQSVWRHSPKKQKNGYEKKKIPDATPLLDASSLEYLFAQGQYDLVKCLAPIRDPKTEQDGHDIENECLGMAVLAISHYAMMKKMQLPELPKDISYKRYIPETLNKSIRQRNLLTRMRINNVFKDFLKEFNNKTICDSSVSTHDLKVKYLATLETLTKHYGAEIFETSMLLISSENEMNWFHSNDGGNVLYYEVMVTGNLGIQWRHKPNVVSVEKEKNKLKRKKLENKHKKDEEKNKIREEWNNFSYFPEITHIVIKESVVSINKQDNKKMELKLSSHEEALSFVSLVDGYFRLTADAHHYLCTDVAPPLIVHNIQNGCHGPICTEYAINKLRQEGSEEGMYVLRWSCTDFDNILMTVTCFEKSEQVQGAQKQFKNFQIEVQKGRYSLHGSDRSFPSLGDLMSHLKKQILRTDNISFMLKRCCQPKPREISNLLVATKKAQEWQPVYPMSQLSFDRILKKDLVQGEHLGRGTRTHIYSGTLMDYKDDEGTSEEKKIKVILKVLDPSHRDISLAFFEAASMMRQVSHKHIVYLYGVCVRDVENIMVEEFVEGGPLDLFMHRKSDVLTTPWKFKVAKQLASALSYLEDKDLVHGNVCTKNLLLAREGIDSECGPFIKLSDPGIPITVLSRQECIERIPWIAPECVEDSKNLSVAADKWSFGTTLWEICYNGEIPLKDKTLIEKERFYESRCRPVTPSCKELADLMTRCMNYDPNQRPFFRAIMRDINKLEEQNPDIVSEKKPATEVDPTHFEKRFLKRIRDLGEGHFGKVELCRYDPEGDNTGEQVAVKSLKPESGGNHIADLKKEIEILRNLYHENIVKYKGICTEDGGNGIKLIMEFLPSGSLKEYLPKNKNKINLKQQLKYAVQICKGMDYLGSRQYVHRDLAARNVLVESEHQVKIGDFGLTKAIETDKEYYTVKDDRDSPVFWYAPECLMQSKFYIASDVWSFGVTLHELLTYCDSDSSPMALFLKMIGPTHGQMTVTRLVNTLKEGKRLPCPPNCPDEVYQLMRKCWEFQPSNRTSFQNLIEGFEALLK

| Structure (SMILES) | IC50 (JAK3) | IC50 (JAK1) | IC50 (JAK2) | Score Day 0 [1] | Score Day 13 (Lewis male mice) | Score Day 14 (Lewis male mice) | Score Day 18 (Lewis male mice) | Score Day 21 (Lewis male mice) | Score Day 25 (Lewis male mice) | Score Day 27 (Lewis male mice) | JAK2/JAK1 (JAK1) |
| --- | --- | --- | --- | --- | --- | --- | --- | --- | --- | --- | --- |
| N#Cc1cnc2[nH]ccc2c1N[C@H]1C[C@@H](NS(=O)(=O)CCC(F)(F)F)C1 [Compound H12, (cis)-4-{[3-(3,3,3-trifluoropropanesulfonamido)-cyclobutyl-1-yl]-amino}-1H-pyrrolo[2,3-b]pyridin-5-carbonitrile] | 66 nM | 0.56 nM | 7.63 nM | 0.00 ± 0.00 | 3.40 ± 0.39 | 3.90 ± 0.61 | 2.90 ± 0.67 | 1.23 ± 0.29 | 0.60 ± 0.17 | 0.50 ± 0.14 |  |
| CN(C)c1nsc(NC(=O)N2C[C@H]3C[C@H](N(C)c4c(C#N)cnc5[nH]ccc45)C[C@H]3C2)n1 [Compound H33, (3aR,5s,6aS)-4-({2-[(3-dimethylamino-1,2,4-thiadiazole-5-yl)carbamoyl]-hexahydrocyclopenta[c]pyrrole-5-yl}-methyl-amino)-1H-pyrrolo[2,3-b]pyridin-5-carbonitrile] | 40 nM | 0.65 nM | 5.7 nM |  |  |  |  |  |  |  | 8.77 |
| N#Cc1cnc2[nH]ccc2c1N1CC2CN(C(=O)NCC(F)(F)F)CC21 (centres unmarked) [Compound H39, 6-(5-cyano-1H-pyrrolo[2,3-b]pyridin-4-yl)-N-(2,2,2-trifluoroethyl)-3,6-diazabicyclo[3.2.0]heptane-3-carboxamide] | 150 nM | 0.35 nM | 21 nM | 0.00 ± 0.00 | 3.10 ± 0.44 | 4.10 ± 0.50 | 3.0 ± 0.37 | 2.33 ± 0.31 | 2.20 ± 0.52 | 1.10 ± 0.27 | 60.00 |
| CC(C)c1nsc(NC(=O)N2C[C@H]3C[C@H](N(C)c4c(C#N)cnc5[nH]ccc45)C[C@H]3C2)n1 [Compound H30, (3aR,5s,6aS)-4-({2-[(3-isopropyl-1,2,4-thiadiazole-5-yl)carbamoyl]-hexahydrocyclopenta[c]pyrrole-5-yl}-methyl-amino)-1H-pyrrolo[2,3-b]pyridin-5-carbonitrile] | 76 nM | 0.57 nM | 6.4 nM | 0.00 ± 0.00 | 3.20 ± 0.37 | 4.00 ± 0.45 | 3.50 ± 0.50 | 2.83 ± 0.29 | 2.00 ± 0.27 | 1.20 ± 0.27 | 11.23 |
| COc1nsc(NC(=O)N[C@H]2C[C@@H](N(C)c3c(C#N)cnc4[nH]ccc34)C2)n1 [Compound H29, (cis)-1-(3-((5-cyano-1H-pyrrolo[2,3-b]pyridin-4-yl)(methyl)amino)cyclobutyl)-3-(3-methoxy-1,2,4-thiadiazole-5-yl)urea] | 60 nM | 0.36 nM | 6.8 nM |  |  |  |  |  |  |  | 18.89 |
| C[C@@H]1CCN(C(=O)CC#N)C[C@@H]1N(C)c1c(C#N)cnc2[nH]ccc12 [Compound H11, 4-{[(3R,4R)-1-(2-cyanoacetyl)-4-methylpiperidin-3-yl]-methyl-amino}-1H-pyrrolo[2,3-b]pyridin-5-carbonitrile] | 77 nM | 1.28 nM | 9.86 nM |  |  |  |  |  |  |  | 7.70 |
| COc1nsc(NC(=O)N2C[C@H]3C[C@H](N(C)c4c(C#N)cnc5[nH]ccc45)C[C@H]3C2)n1 [Compound H07, (3aR,5s,6aS)-4-({2-[(3-methoxy-1,2,4-thiadiazole-5-yl)carbamoyl]-hexahydrocyclopenta[c]pyrrole-5-yl}-methyl-amino)-1H-pyrrolo[2,3-b]pyridin-5-carbonitrile] |  |  |  | 0.00 ± 0.00 | 3.10 ± 056 | 4.10 ± 0.41 | 3.10 ± 0.30 | 3.00 ± 0.11 | 2.00 ± 0.25 | 1.00 ± 0.17 |  |
| CN(c1c(C#N)cnc2[nH]ccc12)[C@H]1C[C@@H]2CN(C(=O)Nc3nc(OCC(C)(C)N)ns3)C[C@@H]2C1 [Compound H44, (3aR,5s,6aS)-5-((5-cyano-1H-pyrrolo[2,3-b]pyridin-4-yl)(methyl)amino)-N-(3-(2-amino-2-methyl-propoxy)-1,2,4-thiadiazole-5-yl)hexahydrocyclopentadiene[c]pyrrole-2(1H)-carboxamide] | 80 nM | 0.67 nM | 15.6 nM | 0.00 ± 0.00 | 2.80 ± 0.45 | 3.40 ± 0.27 | 2.13 ± 0.21 | 1.70 ± 0.10 | 0.83 ± 0.48 | 0.64 ± 0.34 | 23.28 |
| CCCS(=O)(=O)N[C@H]1C[C@@H](N(C)c2c(C#N)cnc3[nH]ccc23)C1 [Compound H14, (cis)-4-{[3-(propanesulfonamido)-cyclobutyl-1-yl]-methyl-amino}-1H-pyrrolo[2,3-b]pyridin-5-carbonitrile] | 34.2 nM | 1.78 nM | 9.95 nM | 0.00 ± 0.00 | 3.30 ± 0.32 | 4.10 ± 0.50 | 3.20 ± 0.73 | 3.20 ± 0.61 | 2.20 ± 0.45 | 1.10 ± 0.27 | 5.59 |
| CN(c1c(C#N)cnc2[nH]ccc12)[C@H]1C[C@@H](NS(=O)(=O)CCC(F)(F)F)C1 [Compound H15, (cis)-4-{[3-(3,3,3-trifluoropropanesulfonamide)-cyclobutyl-1-yl]-methyl-amino}-1H-pyrrolo[2,3-b]pyridin-5-carbonitrile] | 244 nM | 2.36 nM | 16.6 nM |  |  |  |  |  |  |  | 7.03 |
| CN(c1c(C#N)cnc2[nH]ccc12)[C@H]1C[C@@H]2CN(C(=O)Nc3ccc(Cl)c(C(F)(F)F)c3)C[C@@H]2C1 [Compound H25, (3aR,5s,6aS)-N-(4-chloro-3-(trifluoromethyl)phenyl)-5-((5-cyano-1H-pyrrolo[2,3-b]pyridin-4-yl)(methyl)amino)hexahydrocyclopentadiene[c]pyrrole-2(1H)-carboxamide] | 58 nM | 0.56 nM | 6.7 nM | 0.00 ± 0.00 | 2.90 ± 0.48 | 3.40 ± 0.27 | 2.13 ± 0.21 | 1.10 ± 0.10 | 0.93 ± 0.18 | 0.74 ± 0.34 | 11.96 |
| CN(c1c(C#N)cnc2[nH]ccc12)[C@H]1C[C@@H]2CN(C(=O)NCC(F)(F)F)C[C@@H]2C1 [Compound H22, (3aR,5s,6aS)-4-({2-[(2,2,2-trifluoroethyl)-carbamoyl]-hexahydrocyclopenta[c]pyrrole-5-yl}-methyl-amino)-1H-pyrrolo[2,3-b]pyridin-5-carbonitrile] | 58 nM | 0.35 nM | 5.8 nM |  |  |  |  |  |  |  | 16.40 |
